Assay results as given in PMC11997890, “In Vivo and In Vitro Pharmacokinetic Studies of a Dual Topoisomerase I/II Inhibitor” (ACS Pharmacology & Translational Science, 2025).
pIC50: −log10 of the molar value.

What was measured:
[1] = test system: kidney tissue (γH2AX, c-PARP, OGG1); test: In vivo tolerability and immunohistochemistry of tissue damage markers; set-up: species or system Sprague–Dawley rats
Text: Organs were immunostained with antibodies to detect reactive oxygen species, DNA damage, and caspase levels, not showing abnormalities in the liver, lungs, spleen, kidneys, and colon (Figure E).
OGG1, a marker for oxidative DNA damage produced by reactive oxygen species, was expressed weakly in the background and cytoplasm of the negative control samples of kidney tissue. […] No specific immunohistochemical reactions could be observed for the other organs.
Tissues were fixed with 4% formaldehyde and dehydrated with an ethanol series before embedding in paraffin. Tissue sections were cut using a microtome; the tissue sections were deparaffinized and rehydrated in water. Hematoxylin and eosin (H and E) staining was carried out on a Tissue Tek Prisma Plus autostainer (SAKURA). For immunohistochemistry, sections were stained with antibodies directed against γH2AX (Cell Signaling #9718, dilution 1:200, DNA-damage), OGG1 (Proteintech #15125-1-AP, dilution 1:200, DNA-damage), and c-PARP (Abcam #ab32064, dilution 1:200, DNA-damage). […] The immunoreaction was visualized with the Bond Polymer Refine Detection Kit (DS 9800; brown labeling; Novocastra; Leica Biosystems GmbH), resulting in a brown color and counterstained with hematoxylin. The IHC stainings were carried out on the autostainer BOND RX system (Leica Biosystems GmbH). The stained tissue sections were digitalized with a NanoZoomer S60 Digital slide scanner (Hamamatsu) at a 40× magnification objective and analyzed by board-certified pathologists. The samples from three mice were analyzed.

[2] = Plasma protein binding by ultrafiltration; format: in vitro ADME; set-up: dose or concentration left out as unconfirmed; conditions: human, rat, human and rat plasma, 37 °C
Procedure: To examine the effect of the P8-D6 plasma protein binding on the in vivo bioavailability, human and rat plasma was spiked in vitro and incubated with P8-D6. By using ultrafiltration to separate free P8-D6 from the protein-bound fraction, a plasma protein binding of 99% (Figure A) was estimated. However, neither human α-1-microglobulin (3.06%) nor human serum albumin (0.91%) is responsible for binding. According to initial findings, γ-globulins (94.59%), human transferrin (90.43%), LDL (87.99%), human α2-HS glycoprotein (85.29%), and human fibrinogen (78.89%) lead to binding of P8-D6.
To examine the extent of plasma protein binding, 150 μL of blank samples of human plasma […] and rat plasma […], human albumin (1 mM, #A1653, Merck KGaA, Darmstadt); human α1-acid glycoprotein (1 mM; #G9885, Merck KGaA, Darmstadt); human α2-HS-glycoprotein (0.1 mM; #G0516, Merck KGaA, Darmstadt); human transferrin (0.2 mM; #T8158, Merck KGaA, Darmstadt); human fibrinogen (0.2 mM; #F3879, Merck KGaA, Darmstadt); LDL (0.2 mM; […]); and human γ-globulin (1 mM; #G4386, Merck KGaA, Darmstadt) were spiked with P8-D6 in the same final concentration as the protein and incubated in a shaking water bath at 37 °C for 120 min. Afterward, the unbound fraction of P8-D6 was separated by ultrafiltration (Vivaspin 500 10 000 MWCO filter). The sample preparation was performed according to plasma samples. […]

BCRP (ABCG2) = target: T1, BCRP (ABCG2) (Homo sapiens, UniProt Q9UNQ0); test: Transporter inhibition, calcein-AM accumulation in MDCKII cells (BCRP overexpression); format: cell-based; conditions: intracellular accumulation of calcein-AM
T1 construct: expressed in transfected cells; host or cells: MDCKII
T1 sequence (Q9UNQ0 whole entry, species assumed): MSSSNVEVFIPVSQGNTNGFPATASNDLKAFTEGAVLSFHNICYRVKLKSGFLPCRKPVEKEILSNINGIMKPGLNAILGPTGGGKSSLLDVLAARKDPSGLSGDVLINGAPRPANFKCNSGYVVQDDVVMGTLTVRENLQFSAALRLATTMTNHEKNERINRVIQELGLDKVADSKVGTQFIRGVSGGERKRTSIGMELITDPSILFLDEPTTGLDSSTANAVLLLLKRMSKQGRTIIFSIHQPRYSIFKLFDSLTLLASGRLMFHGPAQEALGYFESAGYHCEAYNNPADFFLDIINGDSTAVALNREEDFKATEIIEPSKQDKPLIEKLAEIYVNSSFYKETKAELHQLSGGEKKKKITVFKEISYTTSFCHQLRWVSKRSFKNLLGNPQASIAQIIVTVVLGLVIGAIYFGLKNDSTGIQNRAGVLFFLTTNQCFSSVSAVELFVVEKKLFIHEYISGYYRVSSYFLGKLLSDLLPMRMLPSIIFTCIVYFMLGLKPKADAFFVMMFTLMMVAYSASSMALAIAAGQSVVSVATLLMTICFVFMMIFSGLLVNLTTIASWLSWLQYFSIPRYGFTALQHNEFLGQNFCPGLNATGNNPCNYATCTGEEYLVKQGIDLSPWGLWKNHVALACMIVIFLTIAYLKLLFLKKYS
Procedure: The inhibitory characteristics of P8-D6 on the classic efflux transporters P-GP and BCRP (ABCG2) were evaluated (Figure ).
A potential interaction of P8-D6 with the export protein P-GP (ABCB1) was evaluated in MDCK (P-GP overexpression) and MDCKII (BCRP overexpression) cells. P-GP interaction was determined by the measurement of calcein accumulation within the cells according to Bauer et al. Calcein-acetoxymethylester (calcein-AM) is a nonfluorescent, lipophilic and therefore highly cell-permeable ester. Once inside the cell, the ester bonds are rapidly cleaved by nonspecific esterases, generating highly fluorescent calcein, which is trapped inside the cell because of its hydrophilic nature. Because calcein-AM is a substrate for P-GP, inhibition of the transporter decreases efflux, which results in a higher intracellular fluorescence signal. […] Calcein-AM (MoBiTec, Göttingen, FRG) was added to a final concentration of 1 μM and incubated for 30 min at 37 °C. Afterward, the cells were immediately washed 3 times with ice-cold Krebs–Ringer buffer and lysed with 1% Triton X-100. […] Each determination was repeated 3 times in 2 experiments to ensure reproducibility. All fluorescence values were corrected by subtracting the background fluorescence.

CYP2C9 = target: T2, CYP2C9 (Homo sapiens, UniProt P11712); test: Conversion of P8-D6 by recombinant CYP2C9; format: in vitro ADME
T2 construct: host or cells: human liver microsomes (one value) / recombinant CYP enzyme (other value)
T2 sequence (P11712 whole entry): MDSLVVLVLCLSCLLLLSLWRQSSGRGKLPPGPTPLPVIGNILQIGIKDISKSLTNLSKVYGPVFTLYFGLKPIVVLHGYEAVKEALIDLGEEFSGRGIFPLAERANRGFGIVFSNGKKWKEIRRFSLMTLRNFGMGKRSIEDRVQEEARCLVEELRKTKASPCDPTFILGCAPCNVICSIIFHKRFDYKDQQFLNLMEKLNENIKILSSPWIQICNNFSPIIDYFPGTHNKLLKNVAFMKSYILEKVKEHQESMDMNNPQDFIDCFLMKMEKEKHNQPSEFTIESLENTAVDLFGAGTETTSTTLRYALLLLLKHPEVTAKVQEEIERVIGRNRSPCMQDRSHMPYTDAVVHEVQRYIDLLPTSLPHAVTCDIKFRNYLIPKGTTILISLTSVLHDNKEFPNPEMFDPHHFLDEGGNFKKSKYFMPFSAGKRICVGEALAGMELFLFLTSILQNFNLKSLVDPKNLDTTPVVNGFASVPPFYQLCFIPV
Procedure: P8-D6 N-oxide was the most common metabolite for all incubations with subcellular fractions from the homogenized tissue. According to the detected MS-MS fragments (supplied as Supporting Information Chapter 2), it resulted from N-oxygenation of the nitrogen at the side chain since the unmodified fragment of P8-DO (m/z = 414.1) was detected. Furthermore, the detected fragment at m/z = 440.1 is most likely a carbocation at the remaining ethyl chain after splitting off the dimethylamine N-oxide further strengthening the theory of selectively forming this specific N-oxide. In addition, no relevant chemical shifts in the aromatic range of the ^1H NMR compared to P8-D6 and mono were observed (supplied as Supporting Information Chapter 2). Thus, no chemical modifications can have occurred on the aromatic rings, and all changes must therefore affect the side chain. […] To determine which enzymes were responsible for the conversion, seven recombinant CYP 450 isoenzymes recommended by the FDA’s “Guidance for Industry” and human FMO3 were used.
The third and final in vitro metabolite, P8-DO, is a direct synthesis precursor of P8-D6 and results from oxidative O-desalkylation of the complete side chain (Figure ). […] The formation of P8-DO is mainly catalyzed by CYP2C9 (0.10%) and 2D6 (0.09%) (Figure E). […]

Row | formation of metabolite from P8-D6 (CYP2C9) [%] | Structure (SMILES) | OGG1 immunohistochemistry (oxidative DNA damage) ([1]; kidney tissue) | γH2AX immunohistochemistry (marker for DNA damage) ([1]; kidney tissue) | signs of toxicity ([1]; p.o. 50 mg/kg BW and i.v. 10 mg/kg BW) | C-PARP immunohistochemistry (marker of apoptosis) ([1]; vs positive and negative control) | fraction unbound at 120 min [2] | pIC50 (BCRP (ABCG2))
1 | – | COc1cc(-c2cc3ccncc3c3nc(OCCN(C)C)c4cnccc4c23)cc(OC)c1OC [P8-D6, 6-(N,N-dimethyl-2-aminoethoxy)-11-(3,4,5-trimethoxyphenyl)-pyrido[3,4-c][1,9]-phenanthroline] | did not significantly differ from the negative control | diffuse positivity | no signs of toxicity | no significant difference | 0.01 | 4.79
2 | 0.10 | COc1cc(-c2cc3ccncc3c3[nH]c(=O)c4cnccc4c23)cc(OC)c1OC [P8-DO] | – | – | – | – | – | –
